Measurements published in article PMC11864979, “First-in-class ultralong-target-residence-time p38α inhibitors as a mitosis-targeted therapy for colorectal cancer” (Nature Cancer, 2025).
Where two headings read alike, the source gives them in different places.

Tests used:
Assay in all cases: selectivity profiling in a panel of 340 wild-type kinases (Reaction Biology Europe)
Assay type in all cases: binding
340 wild-type kinases [1] = target: T1, 340 wild-type kinases (Homo sapiens, UniProt P07333)
T1 construct: purchased Reaction Biology Europe

340 wild-type kinases [2] = target: T2, 340 wild-type kinases (Homo sapiens, UniProt O43293)
T2 construct: purchased Reaction Biology Europe

340 wild-type kinases [3] = target: T3, 340 wild-type kinases (Homo sapiens, UniProt O00506)
T3 construct: purchased Reaction Biology Europe

340 wild-type kinases [4] = target: T4, 340 wild-type kinases (Homo sapiens, UniProt P29320)
T4 construct: purchased Reaction Biology Europe
T4 sequence (P29320 21-983): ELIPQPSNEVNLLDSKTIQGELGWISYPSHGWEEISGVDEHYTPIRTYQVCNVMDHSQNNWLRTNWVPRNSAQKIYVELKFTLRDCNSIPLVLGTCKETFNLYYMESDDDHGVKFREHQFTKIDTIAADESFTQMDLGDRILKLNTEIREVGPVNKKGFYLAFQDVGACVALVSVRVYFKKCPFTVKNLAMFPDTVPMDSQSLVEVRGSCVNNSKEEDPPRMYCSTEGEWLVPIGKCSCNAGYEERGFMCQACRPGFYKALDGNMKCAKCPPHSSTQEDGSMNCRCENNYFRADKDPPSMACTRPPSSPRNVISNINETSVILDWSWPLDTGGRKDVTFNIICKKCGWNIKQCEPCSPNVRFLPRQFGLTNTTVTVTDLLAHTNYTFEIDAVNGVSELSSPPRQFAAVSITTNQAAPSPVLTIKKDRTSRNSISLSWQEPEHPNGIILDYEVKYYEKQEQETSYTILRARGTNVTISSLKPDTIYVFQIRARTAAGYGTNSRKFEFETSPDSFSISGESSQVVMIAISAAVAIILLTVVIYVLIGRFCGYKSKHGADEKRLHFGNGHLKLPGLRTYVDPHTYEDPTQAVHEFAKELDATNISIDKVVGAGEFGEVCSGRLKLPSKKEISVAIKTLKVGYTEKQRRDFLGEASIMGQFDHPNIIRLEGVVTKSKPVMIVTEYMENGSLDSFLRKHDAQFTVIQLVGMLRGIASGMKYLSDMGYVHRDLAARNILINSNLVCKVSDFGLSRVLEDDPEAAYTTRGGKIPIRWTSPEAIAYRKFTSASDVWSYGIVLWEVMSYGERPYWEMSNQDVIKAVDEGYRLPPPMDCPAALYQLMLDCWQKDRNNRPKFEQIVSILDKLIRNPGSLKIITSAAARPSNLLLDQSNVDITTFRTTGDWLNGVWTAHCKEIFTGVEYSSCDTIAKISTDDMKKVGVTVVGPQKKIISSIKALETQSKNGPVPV

340 wild-type kinases [5] = target: T5, 340 wild-type kinases (Homo sapiens, UniProt P29317)
T5 construct: purchased Reaction Biology Europe

340 wild-type kinases [6] = target: T6, 340 wild-type kinases (Homo sapiens, UniProt Q99759)
T6 construct: purchased Reaction Biology Europe
T6 sequence (Q99759 1-626): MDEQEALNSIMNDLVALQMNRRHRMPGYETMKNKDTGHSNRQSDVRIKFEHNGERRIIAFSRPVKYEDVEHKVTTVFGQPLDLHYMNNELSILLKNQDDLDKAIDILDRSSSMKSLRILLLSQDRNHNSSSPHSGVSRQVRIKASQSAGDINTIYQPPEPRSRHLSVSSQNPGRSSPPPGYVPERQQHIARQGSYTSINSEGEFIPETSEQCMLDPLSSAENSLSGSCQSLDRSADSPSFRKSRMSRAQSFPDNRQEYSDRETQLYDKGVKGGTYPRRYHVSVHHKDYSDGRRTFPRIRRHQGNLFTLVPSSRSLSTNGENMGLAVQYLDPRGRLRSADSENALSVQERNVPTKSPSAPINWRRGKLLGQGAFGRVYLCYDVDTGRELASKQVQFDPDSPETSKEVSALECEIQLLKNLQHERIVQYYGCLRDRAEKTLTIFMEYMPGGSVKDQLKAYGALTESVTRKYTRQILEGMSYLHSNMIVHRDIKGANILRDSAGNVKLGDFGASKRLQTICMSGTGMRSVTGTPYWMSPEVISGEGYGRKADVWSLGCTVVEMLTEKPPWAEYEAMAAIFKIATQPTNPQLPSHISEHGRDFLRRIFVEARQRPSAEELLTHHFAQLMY

340 wild-type kinases [7] = target: T7, 340 wild-type kinases (Homo sapiens, UniProt O96013)
T7 construct: purchased Reaction Biology Europe

340 wild-type kinases [8] = target: T8, 340 wild-type kinases (Homo sapiens, UniProt P51957)
T8 construct: purchased Reaction Biology Europe

340 wild-type kinases [9] = target: T9, 340 wild-type kinases (Homo sapiens, UniProt Q15303)
T9 construct: purchased Reaction Biology Europe

340 wild-type kinases [10] = target: T10, 340 wild-type kinases (Homo sapiens, UniProt Q16512)
T10 construct: purchased Reaction Biology Europe
T10 sequence (Q16512 whole entry): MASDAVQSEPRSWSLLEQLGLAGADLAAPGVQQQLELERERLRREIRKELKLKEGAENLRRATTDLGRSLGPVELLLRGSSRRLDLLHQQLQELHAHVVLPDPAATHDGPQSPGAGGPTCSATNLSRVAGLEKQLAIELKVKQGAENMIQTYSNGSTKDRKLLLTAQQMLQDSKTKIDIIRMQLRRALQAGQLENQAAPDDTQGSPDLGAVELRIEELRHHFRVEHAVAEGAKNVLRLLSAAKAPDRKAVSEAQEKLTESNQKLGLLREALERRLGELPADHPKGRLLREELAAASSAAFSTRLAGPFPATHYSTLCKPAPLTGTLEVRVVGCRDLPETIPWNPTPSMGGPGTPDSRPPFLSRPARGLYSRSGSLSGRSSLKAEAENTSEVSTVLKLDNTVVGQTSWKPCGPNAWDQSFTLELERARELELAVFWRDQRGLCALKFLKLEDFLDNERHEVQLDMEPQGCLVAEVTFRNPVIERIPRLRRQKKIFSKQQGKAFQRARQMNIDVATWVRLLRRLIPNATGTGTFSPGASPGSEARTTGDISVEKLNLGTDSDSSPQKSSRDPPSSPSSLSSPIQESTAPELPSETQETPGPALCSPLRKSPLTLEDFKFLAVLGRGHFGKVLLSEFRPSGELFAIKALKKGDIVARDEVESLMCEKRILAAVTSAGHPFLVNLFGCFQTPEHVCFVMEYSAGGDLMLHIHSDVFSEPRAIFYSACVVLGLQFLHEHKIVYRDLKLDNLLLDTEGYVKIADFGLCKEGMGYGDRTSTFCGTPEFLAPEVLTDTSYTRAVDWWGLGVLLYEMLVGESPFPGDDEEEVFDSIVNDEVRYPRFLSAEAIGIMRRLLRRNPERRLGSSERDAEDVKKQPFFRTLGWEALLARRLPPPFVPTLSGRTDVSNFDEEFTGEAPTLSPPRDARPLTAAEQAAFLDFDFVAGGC

T2 sequence (O43293 whole entry): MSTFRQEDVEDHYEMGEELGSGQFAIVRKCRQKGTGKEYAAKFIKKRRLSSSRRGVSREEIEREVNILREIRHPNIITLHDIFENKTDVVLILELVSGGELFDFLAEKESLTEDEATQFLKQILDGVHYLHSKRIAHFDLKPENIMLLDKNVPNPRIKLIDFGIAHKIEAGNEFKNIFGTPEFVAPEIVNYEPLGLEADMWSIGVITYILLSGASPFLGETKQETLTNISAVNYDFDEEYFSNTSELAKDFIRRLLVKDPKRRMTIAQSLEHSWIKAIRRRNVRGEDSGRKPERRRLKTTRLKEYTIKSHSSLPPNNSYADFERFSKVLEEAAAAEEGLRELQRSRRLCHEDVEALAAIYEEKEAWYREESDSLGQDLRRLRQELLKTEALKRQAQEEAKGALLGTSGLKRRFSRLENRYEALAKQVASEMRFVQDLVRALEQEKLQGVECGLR
T3 sequence (O00506 whole entry): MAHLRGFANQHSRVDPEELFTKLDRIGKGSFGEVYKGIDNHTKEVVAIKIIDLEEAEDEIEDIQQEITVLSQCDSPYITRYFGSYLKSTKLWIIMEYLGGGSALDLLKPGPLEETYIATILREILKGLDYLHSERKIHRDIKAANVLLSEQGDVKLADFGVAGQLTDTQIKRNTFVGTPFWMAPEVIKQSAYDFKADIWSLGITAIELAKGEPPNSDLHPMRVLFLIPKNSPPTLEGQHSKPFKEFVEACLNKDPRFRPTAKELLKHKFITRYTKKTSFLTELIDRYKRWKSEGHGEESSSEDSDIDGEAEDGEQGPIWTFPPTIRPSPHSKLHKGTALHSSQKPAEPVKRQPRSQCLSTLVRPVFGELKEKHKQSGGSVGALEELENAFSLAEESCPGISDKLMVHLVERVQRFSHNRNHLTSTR
T5 sequence (P29317 24-976): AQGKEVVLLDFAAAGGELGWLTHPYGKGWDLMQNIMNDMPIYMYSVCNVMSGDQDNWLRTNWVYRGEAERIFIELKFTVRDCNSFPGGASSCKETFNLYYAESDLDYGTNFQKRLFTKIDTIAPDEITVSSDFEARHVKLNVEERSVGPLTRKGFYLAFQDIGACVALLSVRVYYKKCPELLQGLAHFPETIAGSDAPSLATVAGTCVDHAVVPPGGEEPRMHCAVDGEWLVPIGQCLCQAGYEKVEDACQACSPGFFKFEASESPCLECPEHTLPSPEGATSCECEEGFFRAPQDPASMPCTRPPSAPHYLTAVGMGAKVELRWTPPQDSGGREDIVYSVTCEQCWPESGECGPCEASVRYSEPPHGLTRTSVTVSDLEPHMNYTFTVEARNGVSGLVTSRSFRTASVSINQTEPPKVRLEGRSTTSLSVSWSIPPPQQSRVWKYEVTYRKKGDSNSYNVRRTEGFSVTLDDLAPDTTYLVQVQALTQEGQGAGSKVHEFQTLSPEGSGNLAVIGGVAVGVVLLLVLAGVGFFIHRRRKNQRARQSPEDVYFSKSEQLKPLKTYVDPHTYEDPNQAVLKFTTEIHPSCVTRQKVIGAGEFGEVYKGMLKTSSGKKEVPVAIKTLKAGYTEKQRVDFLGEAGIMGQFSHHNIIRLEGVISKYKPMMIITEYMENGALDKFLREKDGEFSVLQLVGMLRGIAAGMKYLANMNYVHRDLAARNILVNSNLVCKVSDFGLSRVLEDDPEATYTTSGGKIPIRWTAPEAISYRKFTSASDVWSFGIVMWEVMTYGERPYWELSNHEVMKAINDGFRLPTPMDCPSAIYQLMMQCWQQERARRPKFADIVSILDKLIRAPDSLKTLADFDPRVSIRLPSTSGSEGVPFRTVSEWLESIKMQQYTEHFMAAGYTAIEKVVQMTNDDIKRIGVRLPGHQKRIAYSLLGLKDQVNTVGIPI
T1 sequence (P07333 20-972): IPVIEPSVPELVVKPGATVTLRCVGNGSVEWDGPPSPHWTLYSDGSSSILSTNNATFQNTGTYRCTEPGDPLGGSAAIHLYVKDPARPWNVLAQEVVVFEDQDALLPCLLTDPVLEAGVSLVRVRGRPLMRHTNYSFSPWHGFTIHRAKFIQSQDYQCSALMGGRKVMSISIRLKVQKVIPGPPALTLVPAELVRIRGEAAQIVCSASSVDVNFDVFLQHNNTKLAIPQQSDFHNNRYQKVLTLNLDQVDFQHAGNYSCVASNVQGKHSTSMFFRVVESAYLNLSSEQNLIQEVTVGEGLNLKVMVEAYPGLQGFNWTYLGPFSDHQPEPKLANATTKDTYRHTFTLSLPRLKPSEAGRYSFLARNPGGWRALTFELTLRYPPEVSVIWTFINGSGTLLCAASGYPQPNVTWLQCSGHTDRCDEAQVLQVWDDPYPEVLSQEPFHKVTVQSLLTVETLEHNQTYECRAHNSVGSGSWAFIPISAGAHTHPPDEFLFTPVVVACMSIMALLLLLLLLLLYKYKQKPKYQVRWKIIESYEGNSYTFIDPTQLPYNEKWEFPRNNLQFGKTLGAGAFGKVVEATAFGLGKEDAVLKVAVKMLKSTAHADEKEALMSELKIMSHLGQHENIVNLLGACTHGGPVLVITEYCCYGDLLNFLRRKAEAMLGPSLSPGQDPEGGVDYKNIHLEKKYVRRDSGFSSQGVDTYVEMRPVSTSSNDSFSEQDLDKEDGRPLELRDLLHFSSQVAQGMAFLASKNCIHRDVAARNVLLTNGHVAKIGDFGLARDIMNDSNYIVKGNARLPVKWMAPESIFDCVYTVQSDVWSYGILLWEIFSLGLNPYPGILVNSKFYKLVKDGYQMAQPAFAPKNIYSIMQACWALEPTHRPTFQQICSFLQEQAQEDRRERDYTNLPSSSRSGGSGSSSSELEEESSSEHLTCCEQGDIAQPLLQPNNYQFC
T7 sequence (O96013 whole entry): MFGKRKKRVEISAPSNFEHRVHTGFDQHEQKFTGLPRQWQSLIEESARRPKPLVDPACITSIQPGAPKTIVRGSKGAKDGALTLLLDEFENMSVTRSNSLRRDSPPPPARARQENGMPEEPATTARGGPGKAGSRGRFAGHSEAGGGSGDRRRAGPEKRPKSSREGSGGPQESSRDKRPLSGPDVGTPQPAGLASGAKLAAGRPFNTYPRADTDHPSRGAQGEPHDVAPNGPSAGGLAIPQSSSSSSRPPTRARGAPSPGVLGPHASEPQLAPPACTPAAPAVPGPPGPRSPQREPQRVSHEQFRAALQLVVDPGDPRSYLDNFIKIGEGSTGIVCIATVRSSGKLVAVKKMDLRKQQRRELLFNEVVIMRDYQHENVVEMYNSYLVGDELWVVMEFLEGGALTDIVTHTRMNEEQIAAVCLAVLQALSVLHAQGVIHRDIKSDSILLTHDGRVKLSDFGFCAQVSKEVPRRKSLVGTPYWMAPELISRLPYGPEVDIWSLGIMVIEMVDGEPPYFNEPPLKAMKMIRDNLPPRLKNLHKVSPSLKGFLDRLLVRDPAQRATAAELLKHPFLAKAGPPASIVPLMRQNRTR

CNC(=O)c1ccc2c(c1)C(=O)c1ccc(Nc3ccc(F)c(NC(=O)C4CC4)c3)cc1CC2 [Compound 2015]
remaining activity at 0.2 µM (340 wild-type kinases [1]; 0.2 µM 2015, read-out: CSF1R residual activity): 97.2%
remaining activity at 1 µM (340 wild-type kinases [1]; 1 µM 2015, read-out: CSF1R residual activity): 84%
remaining activity at 0.2 µM (340 wild-type kinases [1]; CSF1R, 0.2 µM, read-out: residual activity): 97.2%
remaining activity at 1 µM (340 wild-type kinases [1]; CSF1R, 1 µM, read-out: residual activity): 84%
remaining activity at 0.2 µM (340 wild-type kinases [2]; 0.2 µM 2015, read-out: DAPK3 residual activity): 110%
remaining activity at 1 µM (340 wild-type kinases [2]; 1 µM 2015, read-out: DAPK3 residual activity): 115%
remaining activity at 0.2 µM (340 wild-type kinases [2]; DAPK3, 0.2 µM, read-out: residual activity): 110%
remaining activity at 1 µM (340 wild-type kinases [2]; DAPK3, 1 µM, read-out: residual activity): 115%
remaining activity at 0.2 µM (340 wild-type kinases [3]; 0.2 µM 2015, read-out: STK25 residual activity): 88.2%
remaining activity at 1 µM (340 wild-type kinases [3]; 1 µM 2015, read-out: STK25 residual activity): 83.6%
remaining activity at 0.2 µM (340 wild-type kinases [3]; STK25, 0.2 µM, read-out: residual activity): 88.2%
remaining activity at 1 µM (340 wild-type kinases [3]; STK25, 1 µM, read-out: residual activity): 83.6%
remaining activity at 0.2 µM (340 wild-type kinases [4]; 0.2 µM 2015, read-out: EPHA3 residual activity): 100%
remaining activity at 1 µM (340 wild-type kinases [4]; 1 µM 2015, read-out: EPHA3 residual activity): 96.4%
remaining activity at 0.2 µM (340 wild-type kinases [4]; EPHA3, 0.2 µM, read-out: residual activity): 100%
remaining activity at 1 µM (340 wild-type kinases [4]; EPHA3, 1 µM, read-out: residual activity): 96.3%
remaining activity at 0.2 µM (340 wild-type kinases [5]; 0.2 µM 2015, read-out: EPHA2 residual activity): 98.4%
remaining activity at 1 µM (340 wild-type kinases [5]; 1 µM 2015, read-out: EPHA2 residual activity): 102%
remaining activity at 0.2 µM (340 wild-type kinases [5]; EPHA2, 0.2 µM, read-out: residual activity): 98.4%
remaining activity at 1 µM (340 wild-type kinases [5]; EPHA2, 1 µM, read-out: residual activity): 102%
remaining activity at 0.2 µM (340 wild-type kinases [6]; 0.2 µM 2015, read-out: MEKK3 residual activity): 105%
remaining activity at 1 µM (340 wild-type kinases [6]; 1 µM 2015, read-out: MEKK3 residual activity): 101%
remaining activity at 0.2 µM (340 wild-type kinases [6]; MEKK3, 0.2 µM, read-out: residual activity): 105%
remaining activity at 1 µM (340 wild-type kinases [6]; MEKK3, 1 µM, read-out: residual activity): 101%
remaining activity at 0.2 µM (340 wild-type kinases [7]; 0.2 µM 2015, read-out: PAK4 residual activity): 92.5%
remaining activity at 1 µM (340 wild-type kinases [7]; 1 µM 2015, read-out: PAK4 residual activity): 85.8%
remaining activity at 0.2 µM (340 wild-type kinases [7]; PAK4, 0.2 µM, read-out: residual activity): 92.5%
remaining activity at 1 µM (340 wild-type kinases [7]; PAK4, 1 µM, read-out: residual activity): 85.8%
remaining activity at 0.2 µM (340 wild-type kinases [8]; 0.2 µM 2015, read-out: NEK4 residual activity): 105%
remaining activity at 1 µM (340 wild-type kinases [8]; 1 µM 2015, read-out: NEK4 residual activity): 101%
remaining activity at 0.2 µM (340 wild-type kinases [8]; NEK4, 0.2 µM, read-out: residual activity): 105%
remaining activity at 1 µM (340 wild-type kinases [8]; NEK4, 1 µM, read-out: residual activity): 101%
remaining activity at 0.2 µM (340 wild-type kinases [9]; 0.2 µM 2015, read-out: ERBB4 residual activity): 120%
remaining activity at 1 µM (340 wild-type kinases [9]; 1 µM 2015, read-out: ERBB4 residual activity): 101%
remaining activity at 0.2 µM (340 wild-type kinases [9]; ERBB4, 0.2 µM, read-out: residual activity): 120%
remaining activity at 1 µM (340 wild-type kinases [9]; ERBB4, 1 µM, read-out: residual activity): 101%
remaining activity at 0.2 µM (340 wild-type kinases [10]; 0.2 µM 2015, read-out: PRK1 residual activity): 101%
remaining activity at 1 µM (340 wild-type kinases [10]; 1 µM 2015, read-out: PRK1 residual activity): 97.6%
remaining activity at 0.2 µM (340 wild-type kinases [10]; PRK1, 0.2 µM, read-out: residual activity): 101%
remaining activity at 1 µM (340 wild-type kinases [10]; PRK1, 1 µM, read-out: residual activity): 97.6%
